In the test the target is T1, Gonadotropin-releasing hormone receptor (Rattus norvegicus, UniProt P30969).
T1 sequence (P30969 whole entry): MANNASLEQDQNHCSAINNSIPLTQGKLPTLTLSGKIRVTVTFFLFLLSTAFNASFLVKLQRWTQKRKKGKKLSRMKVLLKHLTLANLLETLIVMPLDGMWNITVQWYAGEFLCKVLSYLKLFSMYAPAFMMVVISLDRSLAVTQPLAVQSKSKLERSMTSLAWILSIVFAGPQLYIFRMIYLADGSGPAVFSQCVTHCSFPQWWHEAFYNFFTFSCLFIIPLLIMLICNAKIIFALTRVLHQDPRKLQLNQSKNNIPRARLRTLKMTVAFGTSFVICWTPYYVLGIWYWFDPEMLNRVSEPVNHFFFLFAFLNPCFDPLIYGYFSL
Put plainly: Concentration of the peptide which displaces 50% of 125 I-[D-Lys6] gonadotropin-releasing hormone bound to rat pituitary membranes. The class given is cell membranes, Membrane.
With `CC(=O)N[C@H](Cc1ccc2ccccc2c1)C(=O)N[C@H](Cc1ccc(Cl)cc1)C(=O)N[C@H](Cc1ccccn1)C(=O)N[C@@H](CCCN=C(N)N)C(=O)N1CCC[C@H]1C(=O)N[C@H](C)C(N)=O`, the IC50 (as a rule, the point on the concentration scale where inhibition reaches its midpoint) turned out to be 130 nM. With `CC(=O)N[C@H](Cc1ccc2ccccc2c1)C(=O)N[C@H](Cc1ccc(Cl)cc1)C(=O)N[C@H](Cc1ccccn1)C(=O)Nc1ccccc1C(=O)N[C@@H](CCCNC(=N)N)C(=O)N1CCC[C@H]1C(=O)N[C@H](C)C(N)=O` the figure was 140 nM; with `CC(=O)N[C@H](Cc1ccc2ccccc2c1)C(=O)N[C@H](Cc1ccc(Cl)cc1)C(=O)N[C@H](Cc1ccccn1)C(=O)N[C@@H](CC(C)C)C(=O)N[C@@H](CCCN=C(N)N)C(=O)N1CCC[C@H]1C(=O)N[C@H](C)C(N)=O`, 81 nM; with `CC(=O)N[C@H](Cc1ccc2ccccc2c1)C(=O)N[C@H](Cc1ccc(Cl)cc1)C(=O)N[C@H](Cc1ccccn1)C(=O)NCC(=O)N[C@H](CCCNC(=N)N)C(=O)N1CCC[C@H]1C(=O)N[C@H](C)C(N)=O`, 16 nM. With `CC(=O)N[C@H](Cc1ccc2ccccc2c1)C(=O)N[C@H](Cc1ccc(Cl)cc1)C(=O)N[C@H](Cc1ccccn1)C(=O)N[C@H](C)C(=O)N[C@@H](CCCCNC(C)C)C(=O)N1CCC[C@H]1C(=O)N[C@H](C)C(N)=O` the figure was 130 nM. `CC(=O)N[C@H](Cc1ccc2ccccc2c1)C(=O)N[C@H](Cc1ccc(Cl)cc1)C(=O)N[C@H](Cc1ccccn1)C(=O)N[C@@H](C)C(=O)N[C@@H](CCCNC(=N)N)C(=O)N1CCC[C@H]1C(=O)N[C@H](C)C(N)=O` displayed an IC50 of 28 nM. In turn, `CC(=O)N[C@H](Cc1ccc2ccccc2c1)C(=O)N[C@H](Cc1ccc(Cl)cc1)C(=O)N[C@H](Cc1ccccn1)C(=O)N[C@H](C)C(=O)N[C@@H](CCCNC(=N)N)C(=O)N1CCC[C@H]1C(=O)N[C@H](C)C(N)=O` yielded an IC50 of 17 nM. With `C[C@@H](NC(=O)[C@@H]1CCCN1C(=O)[C@H](CCCN=C(N)N)NC(=O)CNC(=O)[C@@H](Cc1ccccc1)NC(=O)[C@@H](Cc1ccccc1)NC(=O)[C@H](N)Cc1ccc2ccccc2c1)C(N)=O` the figure was 280 nM; with `CCCC[C@H](NC(=O)[C@@H](C)NC(=O)[C@@H](Cc1ccccn1)NC(=O)[C@@H](Cc1ccc(Cl)cc1)NC(=O)[C@@H](Cc1ccc2ccccc2c1)NC(C)=O)C(=O)N1CCC[C@H]1C(=O)N[C@H](C)C(N)=O`, 88 nM. With `CC(=O)N[C@H](Cc1ccc2ccccc2c1)C(=O)N[C@H](Cc1ccc(Cl)cc1)C(=O)N[C@H](Cc1ccccn1)C(=O)N[C@H](C)C(=O)N[C@@H](CCCCN)C(=O)N1CCC[C@H]1C(=O)N[C@H](C)C(N)=O` the figure was 20 nM; with `CC(=O)N[C@H](Cc1ccc2ccccc2c1)C(=O)N[C@H](Cc1ccc(Cl)cc1)C(=O)N[C@H](Cc1ccccn1)C(=O)N[C@H](C)C(=O)N[C@@H](CCCCNNC(=O)c1cccnc1)C(=O)N1CCC[C@H]1C(=O)N[C@H](C)C(N)=O`, 14 nM; with `C[C@@H](NC(=O)[C@@H]1CCCN1C(=O)[C@H](CCCNC(=N)N)NC(=O)CNC(=O)[C@@H](Cc1ccccc1)NC(=O)[C@@H](Cc1ccccc1)NC(=O)[C@@H](Cc1ccc2ccccc2c1)NC(=O)OCC1c2ccccc2-c2ccccc21)C(N)=O`, 2200 nM. For `CC(=O)N[C@H](Cc1ccc2ccccc2c1)C(=O)N[C@H](Cc1ccc(Cl)cc1)C(=O)N[C@H](Cc1ccccn1)C(=O)N(C)CC(=O)N[C@@H](CCCNC(=N)N)C(=O)N1CCC[C@H]1C(=O)N[C@H](C)C(N)=O` the value was 31 nM; for `CC(=O)N[C@H](Cc1ccc2ccccc2c1)C(=O)N[C@H](Cc1ccc(Cl)cc1)C(=O)N[C@H](Cc1ccccn1)C(=O)NC1(C(=O)N[C@@H](CCCN=C(N)N)C(=O)N2CCC[C@H]2C(=O)N[C@H](C)C(N)=O)CCC1`, 42 nM; for `CC(=O)N[C@H](Cc1ccc2ccccc2c1)C(=O)N[C@H](Cc1ccc(Cl)cc1)C(=O)N[C@H](Cc1ccccn1)C(=O)N[C@H](CC(C)C)C(=O)N[C@@H](CCCNC(=N)N)C(=O)N1CCC[C@H]1C(=O)N[C@H](C)C(N)=O`, 74 nM. Take `CC(=O)N[C@H](Cc1ccc2ccccc2c1)C(=O)N[C@H](Cc1ccc(Cl)cc1)C(=O)N[C@H](Cc1ccccn1)C(=O)N[C@H](C)C(=O)N1CCC[C@H]1C(=O)N[C@H](C)C(N)=O`: the IC50 was found to be 1500 nM. In the case of `CC(=O)N[C@@H](Cc1ccc2ccccc2c1)C(=O)N[C@H](Cc1ccc(Cl)cc1)C(=O)N[C@H](Cc1ccccn1)C(=O)N[C@H](CCCCN)C(=O)N1CCC[C@@H]1C(=O)N[C@@H](C)C(N)=O`, the IC50 turned out to be 550 nM. With `CC(=O)N[C@H](Cc1ccc2ccccc2c1)C(=O)N[C@H](Cc1ccc(Cl)cc1)C(=O)N[C@H](Cc1ccccn1)C(=O)N[C@H](C)C(=O)N[C@@H](CCCNC(N)=O)C(=O)N1CCC[C@H]1C(=O)N[C@H](C)C(N)=O` the figure was 23 nM. For `CC(=O)N[C@H](Cc1c[nH]c2ccccc12)C(=O)N[C@H](Cc1ccccc1)C(=O)N[C@H](Cc1ccccc1)C(=O)NCC(=O)N[C@@H](CCCN=C(N)N)C(=O)N1CCC[C@H]1C(=O)N[C@H](C)C(N)=O` the value was 450 nM. Consider `CC(=O)N[C@H](Cc1ccc2ccccc2c1)C(=O)N[C@H](Cc1ccc(Cl)cc1)C(=O)N[C@H](Cc1cccnc1)C(=O)N1CCC[C@H]1C(=O)N[C@@H](CCCN=C(N)N)C(=O)N1CCC[C@H]1C(=O)N[C@H](C)C(N)=O`, for which the IC50 worked out at 110 nM. As to `CC(=O)N[C@H](Cc1ccc2ccccc2c1)C(=O)N[C@H](Cc1ccc(Cl)cc1)C(=O)N[C@H](Cc1ccccn1)C(=O)N[C@H](CCCN=C(N)N)C(=O)N[C@@H](CCCNC(N)=O)C(=O)N1CCC[C@H]1C(=O)N[C@H](C)C(N)=O`, the IC50 stood at 72 nM. For `CC(=O)N[C@H](Cc1ccccc1)C(=O)N[C@H](Cc1ccccc1)C(=O)N[C@H](Cc1ccccc1)C(=O)NCC(=O)N[C@@H](CCCNC(=N)N)C(=O)N1CCC[C@H]1C(=O)N[C@H](C)C(N)=O` the value was 230 nM.

In the case of `CC(=O)N[C@@H](Cc1ccc2ccccc2c1)C(=O)N[C@H](Cc1ccc(Cl)cc1)C(=O)N[C@H](Cc1ccccn1)C(=O)N[C@@H](Cc1ccc(O)cc1)C(=O)N[C@H](CCCN=C(N)N)C(=O)N1CCC[C@@H]1C(=O)N[C@@H](C)C(N)=O`, the IC50 turned out to be 25 nM. In turn, `CC(=O)N[C@H](Cc1cccc2ccccc12)C(=O)N[C@H](Cc1ccccc1)C(=O)N[C@H](Cc1ccccc1)C(=O)NCC(=O)N[C@@H](CCCNC(=N)N)C(=O)N1CCC[C@H]1C(=O)N[C@H](C)C(N)=O` displayed an IC50 of 370 nM. For `CC(=O)N[C@H](Cc1ccc2ccccc2c1)C(=O)N[C@H](Cc1ccc(Cl)cc1)C(=O)N[C@H](Cc1ccccn1)C(=O)NCCC(=O)N[C@@H](CCCNC(=N)N)C(=O)N1CCC[C@H]1C(=O)N[C@H](C)C(N)=O` the value was 38 nM. With `CC(=O)N[C@H](Cc1ccc2ccccc2c1)C(=O)N[C@H](Cc1ccc(Cl)cc1)C(=O)N[C@H](Cc1ccccn1)C(=O)NCC(=O)N[C@@H](CCCN=C(N)N)C(=O)N1CCC[C@H]1C(=O)N[C@H](C)C(N)=O` the figure was 7 nM; with `CC(=O)N[C@H](Cc1ccc2ccccc2c1)C(=O)N[C@H](Cc1ccc(Cl)cc1)C(=O)N[C@H](Cc1ccccn1)C(=O)N[C@H](CCCNC(=N)N)C(=O)N1CCC[C@H]1C(=O)N[C@H](C)C(N)=O`, 70 nM.

The compound `CC(=O)N[C@H](Cc1ccc2ccccc2c1)C(=O)N[C@H](Cc1ccc(Cl)cc1)C(=O)N[C@H](Cc1ccccn1)C(=O)NCC(=O)N1CCC[C@H]1C(=O)N[C@H](C)C(N)=O` had an IC50 of 45 nM. For `CC(=O)N[C@H](Cc1ccc2ccccc2c1)C(=O)N[C@H](Cc1ccccc1)C(=O)N[C@H](Cc1ccccc1)C(=O)NCC(=O)N[C@@H](CCCN=C(N)N)C(=O)N1CCC[C@H]1C(=O)N[C@H](C)C(N)=O` the value was 28 nM.

The record behind these values is ChEMBL document CHEMBL1133081, “Design and synthesis of potent hexapeptide and heptapeptide gonadotropin-releasing hormone antagonists by truncation of a decapeptide analogue sequence” (J Med Chem, 2000).
